# In patent EP4806903A1, “WHOLE-PROCESS TARGETING POLYPEPTIDE, PHARMACEUTICAL COMPLEX THEREOF, DRUG DELIVERY SYSTEM AND USE THEREOF” (Fudan University, priority 2023, dated 2025):
# Where no end group is shown, it is not given here. [ ]: non-standard residue; d: D form.
# Assays:
# [1] = target: glucose-regulated protein GRP78 (Homo sapiens, UniProt P11021); conditions: previously validated by research team; cited from earlier work
# [2] = Saturation solubility in PBS; format: physicochemical; conditions: aqueous buffer, PBS pH 7.4, 37°C, calculated based on DOX
# Protocol: The mixture was incubated at 37°C for 24 hours, then filtered through a membrane of 0.22 µm. The filtrates were subsequently diluted 10-fold and 20-fold, respectively, and the concentration of DOX was measured.
# U87 orthotopic glioma = test: In vivo pharmacodynamic study, survival of U87 orthotopic glioma mice; set-up: species or system nude mice; conditions: single dose of DOX 1 mg/kg, intravenous, every other day from day 5
# Protocol: Approximately 20 g nude mice were anesthetized and fixed onto a stereotaxic apparatus. Orthotopic glioma mouse model was established by injecting 5 µL of U87 cell suspension (5×10^5 cells) with microsyringe into the striatum of the mice (0.6 mm anteroposterior to the bregma, 1.8 mm lateral to the midline, and 3 mm deep). On day 5 after tumor implantation, the mice were randomly divided into four groups, with 10 mice per group.
# [3] = Maximum tolerated dose study; set-up: species or system Male Balb/c mice; conditions: mouse, in vivo, iv; tail vein, 14 days monitoring; dose at which no mice died; expressed as DOX
# Protocol: The body weight changes of the mice were recorded daily (relative body weight change = daily body weight / initial body weight), with continuous monitoring for 14 days to observe whether any mice died.
# Tumor cells U87 = test: Intracellular DOX detection in U87 cells; format: cell-based; conditions: 4 hours, 37°C
# Protocol: Tumor cells U87 in the logarithmic growth phase and macrophages RAW264.7, both cultured as monolayers, were detached from the culture dishes by digestion with 0.25% trypsin. The single-cell suspensions were prepared in DMEM medium supplemented with 10% fetal bovine serum. Each well of a 6-well plate was seeded with 5 × 10^5 cells in a volume of 2 mL per well. The plates were then transferred to a CO2 incubator and cultured overnight at 37°C under conditions of 5% CO2 and saturated humidity. After overnight incubation, the culture medium was wholly aspirated from each well. DOX, pHA-AHX-VAP-DOX, and pHA-AOnHX-VAP-DOX (n = 1, 2, 3, 5) solutions were added to the wells, and the cells were incubated at 37°C for 4 hours. The supernatant was then discarded. Following cell collection by trypsinization, the cells were washed three times with PBS and counted. After the final wash, any remaining supernatant was wholly removed. To the cell pellet, acidified methanol (Vmethanol : Vmethanoic acid = 98:2) was added, and the cells were subjected to sonication. After centrifugation at 10,000 rpm for 10 minutes, the supernatant was collected and analyzed for DOX concentration.
# GRP78 protein [4] = test: Western blot of GRP78 protein on the cell membrane of U87 cells; format: cell-based
# Protocol: After cells were subjected to various treatments, the culture medium was removed, and the cells were washed twice with pre-cooled PBS. The cells were then scraped off and collected into an EP tube. Membrane proteins were extracted using a cell membrane protein extraction kit, followed by centrifugation at 12,000 rpm at 4°C to obtain the supernatant, which was stored for later use. The total protein concentration was determined using the BCA assay, after which the sample was mixed with 5× loading buffer at a ratio of 4:1 and heated to denature the proteins. The samples were stored at -20°C for future use. Samples containing approximately 40 µg of protein were subjected to 15% polyacrylamide gel electrophoresis and then transferred onto polyvinylidene fluoride (PVDF) membranes. […]
# After U87 cells were treated with free DOX at different concentrations for 48 hours, membrane proteins were extracted and detected using the method described above.
# After U87 cells were treated with different concentrations of TMZ for 48 hours, membrane proteins were extracted and detected using the method described above.
# After U87 cells were treated with 5 µg/mL TMZ for varying durations, membrane proteins were extracted and analyzed using the method described above.
# GRP78 protein [5] = test: Western blot of GRP78 protein in tumors of orthotopic glioma mice; format: in vivo, nude mice; conditions: TMZ 10 mg/mL by gavage, after 48 hours
# in situ glioma = test: Efficacy of TMZ combined with peptide-DOX complex in in situ glioma; conditions: TMZ 10 mg/kg by gavage Days 3-21; pHA-AO1HX-VAP-DOX equivalent to 3 mg/kg DOX tail vein Days 5-23; n = 10
# Protocol: The in situ glioma model was established as above, with the day of modeling set as Day 0. On Days 3, 5, 7, 9, 11, 13, 15, 17, 19, and 21, mice were administered TMZ by gavage at a single dose of 10 mg/kg.
# [6] = In vivo distribution in nude mouse model of orthotopic glioma; set-up: species or system nude mice; conditions: DOX dose 5 mg/kg, tail vein, 30 minutes; compared to free DOX
# Protocol: Approximately 22 g nude mice were anesthetized and fixed onto a stereotaxic apparatus. An orthotopic glioma mouse model was established by injecting 5 µL of U87 cell suspension (8×10^5 cells) with microsyringe into the striatum of the mice (0.6 mm anteroposterior to the bregma, 1.8 mm lateral to the midline, and 3 mm ventral to the surface). Ten days after tumor implantation, the mice were administered DOX (5 mg/kg) or pHA-AOnHX-VAP-DOX (n = 1, 2, 3, 5; DOX dose: 5 mg/kg) via tail vein injection. Thirty minutes later, the mice were anesthetized, perfused with PBS, and the major organs including the brain, heart, liver, spleen, lungs, and kidneys were collected. The tissues from each organ were blotted dry with filter paper and weighed. Then, according to the weight of each organ, a specific volume of isopropanol containing 0.075 M HCl and 10% water was added, followed by homogenization. After overnight incubation at 4°C, the samples were centrifuged, and the supernatants were collected for analysis. […] As depicted in Figure 30, the accumulation of DOX in the heart was reduced by pHA-AOnHX-VAP-DOX (n = 1, 2, 3, 5), while the drug concentration in the blood was increased.
# glucose-regulated protein GRP78, sequence (P11021 19-654): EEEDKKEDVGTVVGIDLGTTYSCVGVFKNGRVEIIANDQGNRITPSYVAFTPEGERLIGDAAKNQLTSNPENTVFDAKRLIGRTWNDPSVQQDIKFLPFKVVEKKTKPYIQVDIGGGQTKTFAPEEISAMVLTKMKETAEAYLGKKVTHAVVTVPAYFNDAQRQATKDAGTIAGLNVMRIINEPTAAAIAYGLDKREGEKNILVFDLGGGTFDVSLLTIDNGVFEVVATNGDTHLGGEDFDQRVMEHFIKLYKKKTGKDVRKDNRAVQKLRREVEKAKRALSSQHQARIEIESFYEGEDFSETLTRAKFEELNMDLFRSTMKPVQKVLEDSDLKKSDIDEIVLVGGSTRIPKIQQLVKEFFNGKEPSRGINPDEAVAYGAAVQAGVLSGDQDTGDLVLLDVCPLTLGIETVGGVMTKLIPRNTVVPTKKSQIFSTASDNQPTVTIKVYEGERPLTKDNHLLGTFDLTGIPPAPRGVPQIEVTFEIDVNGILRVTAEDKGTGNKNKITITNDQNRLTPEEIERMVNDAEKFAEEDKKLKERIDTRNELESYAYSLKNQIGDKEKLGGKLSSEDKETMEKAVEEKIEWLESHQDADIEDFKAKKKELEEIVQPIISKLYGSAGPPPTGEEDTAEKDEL
compound,measurement,setting,value
"^SVAP: D-type amino acid sequence ^DS^DN^DT^DR^DV^DA^DP, SEQ ID NO: 4 (SNTRVAP; all D-amino acids; VARIANT 1..7: note = D type amino acid)",binding affinity to glucose-regulated protein GRP78,[1],high binding affinity
"COc1cccc2c1C(=O)c1c(O)c3c(c(O)c1C2=O)C[C@@](O)(C(=O)CO)C[C@@H]3O[C@H]1C[C@H](N)[C@H](O)[C@H](C)O1 [DOX, doxorubicin]",solubility at 24 h,[2],220 ± 30 µg/mL
same,median survival time,U87 orthotopic glioma,35.5 days
same,MTD at 336 h,[3],~10 mg/kg
same,uptake by U87 cells (intracellular DOX),Tumor cells U87,higher cellular uptake
same,expression of GRP78 protein on the cell membrane surface of U87 cells,"GRP78 protein [4]; different concentrations, 48 hours",significantly upregulated
"^DVAP: D-type amino acid sequence ^DP^DA^DV^DR^DT^DN^DS, SEQ ID NO: 3 ([dP][dA][dV][dR][dT][dN][dS])",binding affinity to glucose-regulated protein GRP78,[1],high binding affinity
"Cn1nnc2c(C(N)=O)ncn2c1=O [TMZ, temozolomide]",expression of GRP78 protein in tumor tissue relative to control group,GRP78 protein [5],1.45 times
same,median survival time,in situ glioma,48 days
same,time after which GRP78 protein on the cell membrane began to significantly upregulate,"GRP78 protein [4]; 5 µg/mL TMZ, varying durations up to 48 hours",12 h
"^LVAP: L-type amino acid sequence SNTRVAP, SEQ ID NO: 1",binding affinity to glucose-regulated protein GRP78,[1],high binding affinity
COc1cccc2c1C(=O)c1c(O)c3c(c(O)c1C2=O)C[C@@](O)(C(CO)=NNC(=O)CCCCCN1C(=O)CC(SC[C@H](NC(=O)CCOCCOCCNC(=O)c2ccc(O)cc2)C(=O)N2CCC[C@@H]2C(=O)N[C@H](C)C(=O)N[C@@H](C(=O)N[C@H](CCCNC(=N)N)C(=O)N[C@@H](C(=O)N[C@H](CC(N)=O)C(=O)N[C@H](CO)C(=O)O)[C@H](C)O)C(C)C)C1=O)C[C@@H]3O[C@H]1C[C@H](N)[C@H](O)[C@H](C)O1 (stereo partly drawn) [pHA-AO2HX-VAP-DOX],brain accumulation of DOX,[6],greatest increase
